{"source": "PubChem BioAssay AID330", "about": "(DTP/NCI, 2004)", "test_system": "P388 leukemia ip, CD2F1 mice, survival T/C", "test": "NCI In Vivo Anticancer Drug Screen. Data for tumor model P388 Leukemia (intraperitoneal) in CD2F1 (CDF1) mice", "conditions": "endpoint: median survival time, higher = longer survival", "summary_of_the_method": "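Mice carrying the transplanted tumor received test compound or vehicle. Survival was recorded in each group, and the value is the treated-group measurement divided by that of the vehicle-treated control group.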", "key": {"[1]": {"conditions": "dose: 100.0 mg/kg/injection, schedule: Q01DX009 (ip), vehicle: saline with Tween-80"}, "[2]": {"conditions": "dose: 60.0 mg/kg/injection, schedule: Q01DX005 (ip), vehicle: saline with Tween-80"}, "[3]": {"conditions": "dose: 120.0 mg/kg/injection, schedule: Q01DX005 (ip), vehicle: saline with Tween-80"}, "[4]": {"conditions": "dose: 240.0 mg/kg/injection, schedule: Q01DX005 (ip), vehicle: saline with Tween-80"}}, "note": "Inconclusive results and toxic doses are left out.", "data": [{"smiles": "Cc1[nH]c(=O)[nH]c(=O)c1/C=C/C(=O)NC(CO)CS(=O)CS(C)=O", "note": "(centres undefined)", "values": [{"measurement": "T/C", "setting": "dose: 1.2 mg/kg/injection, schedule: Q01DX009 (ip), vehicle: water", "value": "119 % of control"}, {"measurement": "T/C", "setting": "dose: 2.2 mg/kg/injection, schedule: Q01DX009 (ip), vehicle: water", "value": "122 % of control"}, {"measurement": "T/C", "setting": "dose: 2.4 mg/kg/injection, schedule: Q01DX009 (ip), vehicle: water", "value": "119 % of control"}]}, {"smiles": "CCOC(=O)c1cnn(C)c1N", "values": [{"measurement": "T/C", "setting": "dose: 66.7 mg/kg/injection, schedule: Q01DX009 (ip), vehicle: saline with Tween-80", "value": "97 % of control"}, {"measurement": "T/C", "setting": "[1]", "value": "110 % of control"}, {"measurement": "T/C", "setting": "dose: 150.0 mg/kg/injection, schedule: Q01DX009 (ip), vehicle: saline with Tween-80", "value": "105 % of control"}]}, {"smiles": "N#Cc1ccccc1Cl", "values": [{"measurement": "T/C", "setting": "dose: 50.0 mg/kg/injection, schedule: Q01DX009 (ip), vehicle: saline with Tween-80", "value": "100 % of control"}, {"measurement": "T/C", "setting": "[1]", "value": "101 % of control"}, {"measurement": "T/C", "setting": "dose: 200.0 mg/kg/injection, schedule: Q01DX009 (ip), vehicle: saline with Tween-80", "value": "98 % of control"}]}, {"smiles": "COC(=O)c1cc(-c2ccc(Cl)cc2)n2c(N)nnc2n1", "values": [{"measurement": "T/C", "setting": "[2]", "value": "100 % of control"}, {"measurement": "T/C", "setting": "[3]", "value": "100 % of control"}, {"measurement": "T/C", "setting": "[4]", "value": "104 % of control"}]}, {"smiles": "C/C(=N/N=C(N)N)c1ccc(NC(=O)Nc2ccc(/C(C)=N/N=C(N)N)cc2)cc1", "values": [{"measurement": "T/C", "setting": "dose: 6.25 mg/kg/injection, schedule: Q01DX009 (ip), vehicle: water", "value": "151 % of control"}, {"measurement": "T/C", "setting": "dose: 100.0 mg/kg/injection, schedule: Q04DX003 (ip), vehicle: saline with Tween-80", "value": "150 % of control"}, {"measurement": "T/C", "setting": "dose: 150.0 mg/kg/injection, schedule: Q04DX003 (ip), vehicle: saline with Tween-80", "value": "118 % of control"}]}, {"smiles": "CN1CCN2C(=O)CCC2c2cc(Cl)ccc21", "note": "(centres undefined)", "values": [{"measurement": "T/C", "setting": "dose: 100.0 mg/kg/injection, schedule: Q01DX001 (ip), vehicle: saline with Tween-80", "value": "101 % of control"}, {"measurement": "T/C", "setting": "dose: 200.0 mg/kg/injection, schedule: Q01DX001 (ip), vehicle: saline with Tween-80", "value": "101 % of control"}, {"measurement": "T/C", "setting": "dose: 400.0 mg/kg/injection, schedule: Q01DX001 (ip), vehicle: saline with Tween-80", "value": "101 % of control"}]}, {"smiles": "Cc1cc2c(cc1N)C(C)C1(CCC(=O)N2Cc2ccccc2)OCCO1", "note": "(centres undefined)", "values": [{"measurement": "T/C", "setting": "dose: 50.0 mg/kg/injection, schedule: Q01DX005 (ip), vehicle: saline with Tween-80", "value": "96 % of control"}, {"measurement": "T/C", "setting": "dose: 100.0 mg/kg/injection, schedule: Q01DX005 (ip), vehicle: saline with Tween-80", "value": "99 % of control"}, {"measurement": "T/C", "setting": "dose: 200.0 mg/kg/injection, schedule: Q01DX005 (ip), vehicle: saline with Tween-80", "value": "93 % of control"}]}, {"smiles": "CN=Nc1c(O)[nH]c2ccc(C)cc12", "values": [{"measurement": "T/C", "setting": "[2]", "value": "96 % of control"}, {"measurement": "T/C", "setting": "[3]", "value": "98 % of control"}, {"measurement": "T/C", "setting": "[4]", "value": "92 % of control"}]}, {"smiles": "[O-]/[N+]1=[N+](\\[O-])c2ccccc2COCc2ccccc21", "values": [{"measurement": "T/C", "setting": "[2]", "value": "96 % of control"}, {"measurement": "T/C", "setting": "[3]", "value": "93 % of control"}, {"measurement": "T/C", "setting": "[4]", "value": "89 % of control"}]}, {"smiles": "NCCSCCN", "values": [{"measurement": "T/C", "setting": "dose: 50.0 mg/kg/injection, schedule: Q01DX009 (ip), vehicle: saline", "value": "100 % of control"}, {"measurement": "T/C", "setting": "dose: 100.0 mg/kg/injection, schedule: Q01DX009 (ip), vehicle: saline", "value": "99 % of control"}, {"measurement": "T/C", "setting": "dose: 100.0 mg/kg/injection, schedule: Q03DX003 (ip), vehicle: saline", "value": "102 % of control"}, {"measurement": "T/C", "setting": "dose: 200.0 mg/kg/injection, schedule: Q01DX009 (ip), vehicle: saline", "value": "105 % of control"}, {"measurement": "T/C", "setting": "dose: 200.0 mg/kg/injection, schedule: Q03DX003 (ip), vehicle: saline", "value": "105 % of control"}, {"measurement": "T/C", "setting": "dose: 400.0 mg/kg/injection, schedule: Q03DX003 (ip), vehicle: saline", "value": "92 % of control"}]}, {"smiles": "CC1CCC23C1CC(CC(=O)C2(C)O)C3(C)C", "note": "(centres undefined)", "values": [{"measurement": "T/C", "setting": "[2]", "value": "100 % of control"}, {"measurement": "T/C", "setting": "[3]", "value": "97 % of control"}, {"measurement": "T/C", "setting": "[4]", "value": "106 % of control"}]}, {"smiles": "CN(C)C1=CC(=O)NC(c2ccccc2)C1", "note": "(centres undefined)", "values": [{"measurement": "T/C", "setting": "dose: 50.0 mg/kg/injection, schedule: Q01DX005 (ip), vehicle: Klucel (hydroxypropylcellulose) (HPC)", "value": "102 % of control"}, {"measurement": "T/C", "setting": "dose: 100.0 mg/kg/injection, schedule: Q01DX005 (ip), vehicle: Klucel (hydroxypropylcellulose) (HPC)", "value": "99 % of control"}, {"measurement": "T/C", "setting": "dose: 200.0 mg/kg/injection, schedule: Q01DX005 (ip), vehicle: Klucel (hydroxypropylcellulose) (HPC)", "value": "99 % of control"}]}, {"smiles": "CC(C)CCC[C@@H](C)[C@H]1CC[C@H]2[C@@H]3CC=C4C[C@@H](OC(=O)Cc5ccc(N(CCCl)CCCl)cc5)CC[C@]4(C)[C@H]3CC[C@]12C", "values": [{"measurement": "T/C", "setting": "dose: 50.0 mg/kg/injection, schedule: Q01DX010 (ip), vehicle: Klucel (hydroxypropylcellulose) (HPC)", "value": "101 % of control"}, {"measurement": "T/C", "setting": "dose: 100.0 mg/kg/injection, schedule: Q01DX010 (ip), vehicle: Klucel (hydroxypropylcellulose) (HPC)", "value": "99 % of control"}, {"measurement": "T/C", "setting": "dose: 200.0 mg/kg/injection, schedule: Q01DX010 (ip), vehicle: Klucel (hydroxypropylcellulose) (HPC)", "value": "101 % of control"}, {"measurement": "T/C", "setting": "dose: 400.0 mg/kg/injection, schedule: Q01DX010 (ip), vehicle: Klucel (hydroxypropylcellulose) (HPC)", "value": "105 % of control"}, {"measurement": "T/C", "setting": "dose: 800.0 mg/kg/injection, schedule: Q01DX010 (ip), vehicle: Klucel (hydroxypropylcellulose) (HPC)", "value": "92 % of control"}]}]}
